Data set [1] is described as follows: SGN of granular product (product specifications). It is filed as physicochemical. To be noted: average.
A short description of data set [2]: Crush strength of urea particles. It is filed as physicochemical. The following applies: average strength of 20 particles. The procedure:
The crush strength was determined by subjecting individual particles of urea to a measured force, applied by means of a metal plunger. The force, at which the particle fractures, was taken as a measure of strength. The average strength of 20 particles were reported.

Data set [3] in a line: Water, HCHO and biuret content of urea compositions by IR and/or HPLC. It is filed as physicochemical. To be noted: average. The procedure: The water, HCHO, NBPT and biuret content of the urea compositions were analyzed by IR and/or HPLC. All concentrations were calculated in μg/ml unless otherwise noted. HPLC samples were prepared by weighing approximately 0.4 grams of sample into a 10-20 mL disposable glass vial or volumetric flask. For high concentration samples (>30% inhibitor), approximately 0.025 grams of sample was weighed into a 100 mL volumetric flask. For lower concentration samples, 10 mL of water was added and the sample was shaken until the sample was dissolved. For higher concentration samples, the sample was diluted to the 100 mL mark with diluent. A disposable dropper was used to transfer the sample into an autosampler vial. The sample was analyzed in duplicate including a diluent blank using the conditions below. The evaluation was carried out by the method of external standard with the calibration using a calibration line. A minimum of 2 sets of standards as set out below were run before and after unknowns. RSD is the relative deviation in rel. %, calculated from three repeats of sampling and two repeats of analysis of each sample (see EP 15688). […]
The chromatogram was evaluated at the wavelength of 214 nm. […]

The conditions of data set [4]: cited from earlier work.

Structures are written as SMILES. Read-outs that look alike come from different tables or passages of the source.

As to `NC(N)=O` [Urea], the SGN in data set [1] is given as 277.0. The “Crush Strength” value in data set [2] stood at 7.5 lbs. Further, the “% HCHO” value in data set [3] is given as <0.5%.
In the case of `CCCCNP(N)(N)=S` [NBPT, N-(n-butyl) thiophosphoric triamide], the “half-life of NBPT” value is listed as “more than one” in data set [4] (NBPT injected into the melted urea before granulation) and “about six” in data set [4] (surface-treated urea).
